{"source": "patent US20260240772A1", "about": "(priority 2022, published 2026)", "key": {"normal mice [1]": {"system": "normal mice", "conditions": "subcutaneous injection 10 mg kg^−1; 5-30 min; FIG. 10B"}, "normal mice [2]": {"system": "normal mice", "conditions": "subcutaneous injection 10 mg kg^−1; 1 hour after injection; FIG. 10G"}}, "data": [{"smiles": "CN1CC[C@]23c4c5ccc(O)c4O[C@H]2[C@@H](O)C=C[C@H]3[C@H]1C5", "note": "[morphine single drug, morphine]", "values": [{"measurement": "heart rate compared with conditions before administration", "setting": "normal mice [1]", "value": "remarkably reduced"}, {"measurement": "number of fecal particles compared with the solvent group", "setting": "normal mice [2]", "value": "remarkably reduced"}]}]}
